Data as given in patent US20190134047A1, “A MIXTURE OF D-SERINE AND CAFFEINE FOR OBTAINING THE EFFECT OF PREVENTING THE DECLINE OF LEARNING ABILITY OR MEMORY CAUSED BY STRESS AND ENHANCING LEARNING ABILITY OR MEMORY, AND A FUNCTIONAL FOOD COMPOSITION CONTAINING THE SAME” (ADVANCED NT, priority 2016, published 2019).

System: C57BL/6 male mouse
Experiment: Novel object recognition test with restraint stress
Format: in vivo
Conditions: for preference for objects A and B on the fourth day (training day): abdominal injection 30 min before; for preference for objects A and B on the fourth day (training day) / preference for new object C on the fifth day after 24 hours: + restraint stress, mean±standard error; for preference for new object C on the fifth day after 24 hours: abdominal injection
Procedure: In all experiments, C57BL/6 male mouse, a kind of B6 mouse of 8-12 weeks old, were used. The experimental groups were divided into 7 experimental groups according to whether they were stressed or not and the type and weight of injected drugs as follows. […] Immediately after each behavioral experiment, restraint stress was applied by placing the mouse in a 50 mL tube pre-pierced with about 9 pores for 90 minutes. A mouse was placed in an open-field box (40 cm×40 cm×40 cm) made of acryl for 15 minutes every day for 3 days to fit and stabilize to the box. On the training day of the fourth day, two different objects made of acryl (objects A and B) were placed at regular intervals in the box and the mice were trained to freely search objects A and B for 10 minutes. […] The search time for each object (A and C or B and C) was quantified and the preference for the object was expressed as a ratio of search time (Preference (%)=C/(A+C)*100). […] To compare the results of the said two behavioral experiments, SPSS 21.0 (SPSS Inc, Chicago, Ill.) and Student's T-test and one-way ANOVA were used for statistical analysis.

[1] = D-serine 500 mg (second weight)

In the case of `Cn1c(=O)c2c(ncn2C)n(C)c1=O` [caffeine], the “preference for objects A and B on the fourth day (training day)” value (from here on “preference for objects A and B”) (Caffeine 10 mg) is reported as 49.92±2.75% and the “preference for new object C on the fifth day after 24 hours” value (“preference … after 24 hours” for short) (Caffeine 10 mg) is reported as 62.06±2.27%.
With `N[C@H](CO)C(=O)O` [D-serine] the “preference for new object C, comparison among drug groups” value (D-Serine 50 mg + restraint stress as printed, 24-hour results, one-way ANOVA) was “highest preference”, the “preference for objects A and B” value (D-serine 50 mg (first weight)) was 52.12±2.81% and the “preference … after 24 hours” value (D-serine 50 mg (first weight)) was 63.63±3.94%. For the same compound, the “preference for objects A and B” value [1] was 47.83±3.97% and the “preference … after 24 hours” value [1] was 67.55±3.46%.
